For the assay, the target named is T1, Human Neutrophil Elastase (HNE) (Homo sapiens, UniProt P08246).
T1 construct: Human Neutrophil Elastase (HNE) purified from serum (Calbiochem art. 324681); purchased Calbiochem 324681; host or cells: purified from human material ('serum' in the source)
T1 sequence (P08246 30-247 limits assumed): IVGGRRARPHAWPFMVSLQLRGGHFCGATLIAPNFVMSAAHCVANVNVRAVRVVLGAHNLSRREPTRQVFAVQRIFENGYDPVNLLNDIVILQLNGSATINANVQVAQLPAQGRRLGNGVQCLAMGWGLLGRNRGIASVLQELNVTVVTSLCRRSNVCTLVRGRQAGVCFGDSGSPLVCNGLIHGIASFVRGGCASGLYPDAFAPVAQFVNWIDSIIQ
Kind of assay: Human Neutrophil Elastase Quenched-FRET Assay. The format is biochemical. Particulars: HNE 1.7 nM, substrate MeOSuc-AAPV-AMC 100 μM, 15 min preincubation, 30 min incubation at room temperature; read-out: Inhibition of Human Neutrophil Elastase IC50. How it is done: Human Neutrophil Elastase Quenched-FRET Assay
The assay uses Human Neutrophil Elastase (HNE) purified from serum (Calbiochem art. 324681; Ref. Baugh, R. J. et al., 1976, Biochemistry. 15, 836-841). HNE was stored in 50 mM sodium acetate (NaOAc), 200 mM sodium chloride (NaCl), pH 5.5 with added 30% glycerol at −20° C. The protease substrate used was Elastase Substrate V Fluorogenic, MeOSuc-AAPV-AMC (Calbiochem art. 324740; Ref. Castillo, M. J. et al., 1979, Anal. Biochem. 99, 53-64). The substrate was stored in dimethyl sulphoxide (DMSO) at −20° C. The assay additions were as follows: Test compounds and controls were added to black 96-well flat-bottom plates (Greiner 655076), 1 μL in 100% DMSO, followed by 30 μL HNE in assay buffer with 0.01% Triton (trade mark) X-100 detergent. The assay buffer constitution was: 100 mM Tris(hydroxymethyl)aminomethane (TRIS) (pH 7.5) and 500 mM NaCl. The enzyme and the compounds were incubated at room temperature for 15 minutes. Then 30 μl substrate in assay buffer was added. The assay was incubated for 30 minutes at room temperature. The concentrations of HNE enzyme and substrate during the incubation were 1.7 nM and 100 μM, respectively. The assay was then stopped by adding 60 μl stop solution (140 mM acetic acid, 200 mM sodium monochloroacetate, 60 mM sodium acetate, pH 4.3). Fluorescence was measured on a Wallac 1420 Victor 2 instrument at settings: Excitation 380 nm, Emission 460 nm. IC50 values were determined using Xlfit curve fitting using model 205.
For `CNC(=O)c1nc(-c2ccnn2-c2ccc(C#N)cc2)c(C)n(-c2cccc(C(F)(F)F)c2)c1=O` [Example 1, 6-[2-(4-Cyano-phenyl)-2H-pyrazol-3-yl]-5-methyl-3-oxo-4-(3-trifluoromethyl-phenyl)-3,4-dihydro-pyrazine-2-carboxylic acid methylamide], the IC50 was 0.33 nM.
For `Cc1c(-c2ccnn2-c2ccc(C#N)cc2)nc(C(=O)NCc2ccc(S(C)(=O)=O)cn2)c(=O)n1-c1cccc(C(F)(F)F)c1` [Example 2, 6-[2-(4-Cyano-phenyl)-2H-pyrazol-3-yl]-5-methyl-3-oxo-4-(3-trifluoromethyl-phenyl)-3,4-dihydro-pyrazine-2-carboxylic acid (5-methanesulfonyl-pyridin-2-ylmethyl)-amide] the value was 0.32 nM.
For `Cc1c(-c2ccnn2-c2ccc(C#N)nc2)nc(C(=O)NC2CC2)c(=O)n1-c1cccc(C(F)(F)F)c1` [Example 12, 6-[1-(6-Cyanopyridin-3-yl)-1H-pyrazol-5-yl]-N-cyclopropyl-5-methyl-3-oxo-4-[3-(trifluoromethyl)phenyl]-3,4-dihydropyrazine-2-carboxamide] the value was 1 nM.
For `Cc1c(-c2ccnn2-c2ccc(C#N)cc2)nc(C(=O)NCC(=O)O)c(=O)n1-c1cccc(C(F)(F)F)c1` [Example 16, 2-[[6-[2-(4-Cyanophenyl)pyrazol-3-yl]-5-methyl-3-oxo-4-[3-(trifluoromethyl)phenyl]-3,4-dihydro-pyrazine-2-carbonyl]amino]acetic acid] the value was 0.61 nM.

A word on the IC50: it is the concentration that gives 50% inhibition.

The values above are taken from patent US8410114B2, “2-pyrazinone derivatives for the treatment of disease or condition in which inhibition of neutrophil elastase activity is beneficial” (AstraZeneca AB, priority 2006, dated 2013).
